{
  "source": "patent US10894817B2",
  "about": "“Fatty acid modified urocortin-2 analogs for the treatment of diabetes and chronic kidney disease” (priority 2016, dated 2021)",
  "key": {"[1]": {"molecular_target": "T1, human CRHR2b (Homo sapiens, UniProt Q13324)", "T1 construct": "expressed in transfected cells; host or cells: Chinese Hamster Ovary (CHO) cells, transient transfection", "T1 sequence (Q13324 1-438 isoform Q13324-2)": "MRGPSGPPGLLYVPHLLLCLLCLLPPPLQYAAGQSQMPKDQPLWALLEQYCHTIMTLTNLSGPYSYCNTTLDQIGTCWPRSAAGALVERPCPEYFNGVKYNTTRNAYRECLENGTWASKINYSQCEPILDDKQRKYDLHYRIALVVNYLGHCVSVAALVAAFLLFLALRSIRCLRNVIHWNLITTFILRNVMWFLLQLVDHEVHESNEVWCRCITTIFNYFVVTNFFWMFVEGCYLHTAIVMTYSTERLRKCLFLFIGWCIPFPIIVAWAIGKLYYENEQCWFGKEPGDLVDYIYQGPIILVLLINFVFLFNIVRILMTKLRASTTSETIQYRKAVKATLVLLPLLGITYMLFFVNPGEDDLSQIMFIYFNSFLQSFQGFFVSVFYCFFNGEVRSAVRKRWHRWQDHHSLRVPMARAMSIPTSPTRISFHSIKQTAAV", "test": "human CRHR2b cell-based cAMP assay", "details": "cAMP assay, CHO cells transfected with human CRHR2b; mean ± SEM of runs; read-out: hCRHR2b Average EC50", "procedure,_shortened": "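ED50 values are means ± SEM over several runs, curve-fitted from cAMP in pmol, calibrated against unlabeled-cAMP standards. Detection was HTRF competition, ratio 665/620 nm, after 30 min agonist exposure at 37 °C.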"}, "[2]": {"molecular_target": "T2, human CRHR1 (Homo sapiens, UniProt P34998)", "T2 construct": "which expresses endogenous human CRHR1; host or cells: Y79 human retinoblastoma cells", "T2 sequence (P34998 24-415)": "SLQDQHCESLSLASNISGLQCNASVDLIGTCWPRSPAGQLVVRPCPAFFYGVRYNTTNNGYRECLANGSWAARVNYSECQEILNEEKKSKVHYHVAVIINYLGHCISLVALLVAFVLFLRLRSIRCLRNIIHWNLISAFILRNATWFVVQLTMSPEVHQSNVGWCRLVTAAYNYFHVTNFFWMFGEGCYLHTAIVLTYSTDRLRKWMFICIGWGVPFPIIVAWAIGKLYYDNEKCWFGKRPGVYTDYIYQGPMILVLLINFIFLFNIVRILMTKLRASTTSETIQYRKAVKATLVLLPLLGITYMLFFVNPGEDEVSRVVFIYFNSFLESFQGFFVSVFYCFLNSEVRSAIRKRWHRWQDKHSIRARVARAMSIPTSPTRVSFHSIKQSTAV", "test": "human CRHR1 cell-based cAMP assay (Y79 cells)", "details": "Y79 cells with endogenous human CRHR1, mean ± SEM of runs, read-out: hCRHR1 Average EC50", "procedure": "CRHR agonistic activity is measured in a cell-based cAMP assay. Serial dilutions of the test peptides are made in assay buffer containing Hank's Balanced Salt Solution (HBSS, without phenol red) supplemented with 20 mM HEPES and 0.05% lactalbumin enzymatic hydrolysate (LAH) (“assay buffer”). The highest concentration that is used starts from 1 μM in the human CRHR2b, whereas 100 μM starting concentration is used in the human CRHR1 assay. A one to three dilution of the test peptides is used in both assays.\nThe human Retinoblastoma cell line Y79 (ATCC #HTB-18), which expresses endogenous human CRHR1, is used in the human CRHR1 assay. The cells are grown in RPMI 1640 (Hyclone, #SH30255) containing 20% fetal bovine serum and 10 mM HEPES, in suspension culture. Cells are centrifuged to remove the culture media and washed once in HBSS supplemented with 20 mM HEPES. The cells are resuspended in the assay buffer and 20,000 cells are used per treatment in the human CRHR1 assay.\nThe cells are dispensed into Costar 96-well black polystyrene half area EIA/RIA plates (Corning Incorporated, Corning, N.Y.) followed by the addition of the diluted peptides, each at a volume of 20 μL. The agonist induced cAMP levels are detected using a HTRF cAMP Dynamic 2 kit (CisBio, Bedford, Mass.). After incubation at 37° C. for 30 min, the assay is stopped by cell lysis via the addition of 20 μL of d2-labeled cAMP and followed by 20 μL of cryptate-labeled anti-cAMP antibody, as described by the manufacturer. Cellular cAMP (as a result of agonist stimulation) competes with the d2-labeled cAMP for binding to the antibody. HTRF detection is performed on an Envision plate reader (Perkin Elmer Life and Analytical Sciences, Waltham, Mass.) by measuring ratiometric emission at 620 and 665 nm after excitation at 320 nm.\nThe data are converted to picomoles of cAMP using a standard curve obtained from the same assay performed with varying concentrations of unlabeled cAMP. Percent of the maximum activation of the cells is calculated using converted picomole cAMP data by comparing to the amount of cAMP produced by 1 μM human UCN2 for the human CRHR2b or 1 μM human UCN1 for the human CRHR1 assay. The data are analyzed using a Curve Fitting Tool to calculate ED50. Numeric values shown below in Table 1 represent the mean of multiple runs (number of runs shown in parentheses) following the mean value±SEM."}},
  "note": "Starred links: 1 amine or outer side, 2 acyl side, 3 side chain; linkers in the order of their positions; H or OH if unused. Non-standard residues stand in square brackets, D forms with d. Residues, ends and D or L forms follow the SMILES beside them. Groups on a side chain read outwards from the residue. *: point of attachment. C20 diacid = O=C(O)CCCCCCCCCCCCCCCCCCC(=O)*; γGlu = O=C(O)[C@H](CCC(=O)[*:2])N[*:1]; NMeI = CC[C@H](C)[C@H](NC)C(=O)O; AEEA = NCCOCCOCC(=O)O",
  "data": [
    {"molecule": "CC[C@H](C)[C@H](NC)C(=O)N[C@H](C(=O)N[C@@H](CC(C)C)C(=O)N[C@@H](CO)C(=O)N[C@@H](CC(C)C)C(=O)N[C@@H](CC(=O)O)C(=O)N[C@H](C(=O)N1CCC[C@H]1C(=O)N[C@H](C(=O)NCC(=O)N[C@@H](CC(C)C)C(=O)N[C@@H](CC(C)C)C(=O)N[C@@H](CCC(N)=O)C(=O)N[C@H](C(=O)N[C@@H](CC(C)C)C(=O)N[C@@H](CC(C)C)C(=O)N[C@@H](CCC(=O)O)C(=O)N[C@@H](CCC(N)=O)C(=O)N[C@@H](CCC(=O)O)C(=O)N[C@@H](CCCCN)C(=O)N[C@@H](CCC(N)=O)C(=O)N[C@@H](CCC(=O)O)C(=O)N[C@@H](CCCCN)C(=O)N[C@@H](CCC(=O)O)C(=O)N[C@@H](CCCCN)C(=O)N[C@@H](CCC(N)=O)C(=O)N[C@@H](CCC(N)=O)C(=O)N[C@@H](C)C(=O)N[C@@H](CCCCNC(=O)COCCOCCNC(=O)COCCOCCNC(=O)CC[C@H](NC(=O)CC[C@H](NC(=O)CCCCCCCCCCCCCCCCCCC(=O)O)C(=O)O)C(=O)O)C(=O)N[C@H](C(=O)N[C@@H](CC(N)=O)C(=O)N[C@@H](C)C(=O)N[C@@H](CCC(=O)O)C(=O)N[C@H](C(=O)N[C@@H](CC(C)C)C(=O)N[C@@H](C)C(=O)N[C@@H](CCC(N)=O)C(=O)N[C@H](C(N)=O)C(C)C)[C@@H](C)CC)[C@@H](C)O)[C@@H](C)CC)[C@@H](C)CC)C(C)C)C(C)C", "note": "[Example 6] (H-[NMeI]VLSLDVPIGLLQILLEQEKQEKEKQQAK([AEEA-AEEA-γGlu-γGlu-C20 diacid])TNAEILAQV-NH2)", "values": [
      {"measurement": "EC50", "setting": "[1]", "value": "2.5 ± 1.06", "unit": "nM"},
      {"measurement": "EC50", "setting": "[2]", "value": "> 100000", "unit": "nM"}
    ]}
  ]
}
